Measurements from PMC10945555, “Improving Activity of New Arylurea Agents against Multidrug-Resistant and Biofilm-Producing Staphylococcus epidermidis” (ACS Medicinal Chemistry Letters, 2024).
Values after ≈ are worked out from the molar mass of the structure shown. Where two headings read alike, the source gives them in different places.

Key:
[1] = tested on: Staphylococcus aureus ATCC BAA-976; assay: MIC, broth microdilution, MDR/BPSA reference strain; format: cell-based; conditions: ATCCBAA976; Staphylococcus aureus ATCC BAA-976; read-out: MIC MDR/BPSA
Source text: These strains included susceptible, multidrug-resistant, and biofilm-producing strains of S. epidermidis and S. aureus (MSSE, MDR/BPSE, and MDR/BPSA, respectively). The cornerstone antibiotic linezolid served as a positive control (Table 1). The impact of structural modifications at the aryloxy fragment and the aromatic moiety bound to the propyl linker on the inhibitory activity was initially investigated. […] Further optimization focused on evaluating the impact of the type of substituent and its position on the arylsulfonamide fragment’s activity.
(§1) 2 Biological assay protocols
(§2) Microbiological tests were carried out under aseptic conditions in a laminar chamber of the 2nd […]
(§3) (BioTectum 1.2, Alchem Poland). The assessment of antimicrobial activity was carried out for final compounds in the form of free bases, soluble in DMSO (Merck, Germany), at the initial […]
(§4) concentration of 1 mg/mL. […]
were provided by Cayman Chemical, USA.
The activity of all newly synthesized compounds was tested in vitro on a panel of selected reference strains from the American Type Culture Collection (ATCC) of Gram-positive […]
(§5) 2.2 Effect of evaluated compounds on planktonic cells
(§6) The susceptibility of three reference bacterial strains (Staphylococcus epidermidis ATCC […]
(§7) Table S1) and 81 clinical MDR S. epidermidis (Table S2) to the tested compounds was assessed by determining the MIC value (Minimal Inhibitory Concentration) by microdilution in a liquid medium in 96-well flat-bottom cell culture plates (Nest Biotechnology Scientific, USA). The antibacterial properties of the compo unds were tested in the concentration range from 50 µg/mL to 0.1 µg/mL by making a series of double dilutions of the compound in liquid Mueller -Hinton II Broth Cation Adjusted (MHB II, BBL TM, USA) according to the European Committee on […]
(§8) Antimicrobial Susceptibility Testing guidelines (EUCAST).2,3 The determinations were performed twice. The MIC50 and MIC90 values were determined for each of the tested

[2] = tested on: clinical MDR Staphylococcus epidermidis isolates; assay: MIC, broth microdilution, 81 clinical MDR strains; format: cell-based; conditions: Staphylococcus epidermidis
Experimental: as §1, §2, §3, §4
were provided by Cayman Chemical, USA. […]
The antibacterial activity of selected compounds was also tested on a panel of 81 unrelated, multidrug -resistant clinical strains of Staphylococcus epidermidis from the own collection of the Department of Pharmaceutical Microbiology of the Jagiellonian University Medical College.
as §5, §6, §7, §8

SMILES: O=S(=O)(NC1CCN(CCC(Oc2ccc(C(F)(F)F)cc2)c2cccs2)CC1)c1cccc(C(F)(F)F)c1 (stereo not shown) [Compound 21]
- MIC [1]: 50 µg/mL (≈ 84.4 µM)
- MIC ([2]; clinical strain 1 (Table S2), read-out: MIC): 0.8 µg/mL (≈ 1.35 µM)
- MIC ([2]; clinical strain 2 (Table S2), read-out: MIC): 6.25 µg/mL (≈ 10.5 µM)
- MIC ([2]; clinical strain 3 (Table S2), read-out: MIC): 6.25 µg/mL (≈ 10.5 µM)
- MIC ([2]; clinical strain 4 (Table S2), read-out: MIC): 50 µg/mL (≈ 84.4 µM)
- MIC ([2]; clinical strain 5 (Table S2), read-out: MIC): 1.6 µg/mL (≈ 2.7 µM)
- MIC ([2]; clinical strain 6 (Table S2), read-out: MIC): 50 µg/mL (≈ 84.4 µM)
- MIC ([2]; clinical strain 7 (Table S2), read-out: MIC): 50 µg/mL (≈ 84.4 µM)
- MIC ([2]; clinical strain 8 (Table S2), read-out: MIC): 6.25 µg/mL (≈ 10.5 µM)
- MIC ([2]; clinical strain 9 (Table S2), read-out: MIC): 3.12 µg/mL (≈ 5.27 µM)
- MIC ([2]; clinical strain 10 (Table S2), read-out: MIC): 50 µg/mL (≈ 84.4 µM)
- MIC ([2]; clinical strain 11 (Table S2), read-out: MIC): 6.25 µg/mL (≈ 10.5 µM)
- MIC ([2]; clinical strain 12 (Table S2), read-out: MIC): 50 µg/mL (≈ 84.4 µM)
- MIC ([2]; clinical strain 13 (Table S2), read-out: MIC): 50 µg/mL (≈ 84.4 µM)
- MIC ([2]; clinical strain 14 (Table S2), read-out: MIC): 50 µg/mL (≈ 84.4 µM)
- MIC ([2]; clinical strain 15 (Table S2), read-out: MIC): 50 µg/mL (≈ 84.4 µM)
- MIC ([2]; clinical strain 16 (Table S2), read-out: MIC): 50 µg/mL (≈ 84.4 µM)
- MIC ([2]; clinical strain 17 (Table S2), read-out: MIC): 50 µg/mL (≈ 84.4 µM)
- MIC ([2]; clinical strain 18 (Table S2), read-out: MIC): 50 µg/mL (≈ 84.4 µM)
- MIC ([2]; clinical strain 19 (Table S2), read-out: MIC): 50 µg/mL (≈ 84.4 µM)
- MIC ([2]; clinical strain 20 (Table S2), read-out: MIC): 3.12 µg/mL (≈ 5.27 µM)
- MIC ([2]; clinical strain 21 (Table S2), read-out: MIC): 3.12 µg/mL (≈ 5.27 µM)
- MIC ([2]; clinical strain 22 (Table S2), read-out: MIC): 6.25 µg/mL (≈ 10.5 µM)
- MIC ([2]; clinical strain 23 (Table S2), read-out: MIC): 0.8 µg/mL (≈ 1.35 µM)
- MIC ([2]; clinical strain 24 (Table S2), read-out: MIC): 3.12 µg/mL (≈ 5.27 µM)
- MIC ([2]; clinical strain 25 (Table S2), read-out: MIC): 50 µg/mL (≈ 84.4 µM)
- MIC ([2]; clinical strain 26 (Table S2), read-out: MIC): 50 µg/mL (≈ 84.4 µM)
- MIC ([2]; clinical strain 27 (Table S2), read-out: MIC): 0.8 µg/mL (≈ 1.35 µM)
- MIC ([2]; clinical strain 28 (Table S2), read-out: MIC): 50 µg/mL (≈ 84.4 µM)
- MIC ([2]; clinical strain 29 (Table S2), read-out: MIC): 50 µg/mL (≈ 84.4 µM)
- MIC ([2]; clinical strain 30 (Table S2), read-out: MIC): 50 µg/mL (≈ 84.4 µM)
- MIC ([2]; clinical strain 31 (Table S2), read-out: MIC): 50 µg/mL (≈ 84.4 µM)
- MIC ([2]; clinical strain 32 (Table S2), read-out: MIC): 50 µg/mL (≈ 84.4 µM)
- MIC ([2]; clinical strain 33 (Table S2), read-out: MIC): 50 µg/mL (≈ 84.4 µM)
- MIC ([2]; clinical strain 34 (Table S2), read-out: MIC): 50 µg/mL (≈ 84.4 µM)
- MIC ([2]; clinical strain 35 (Table S2), read-out: MIC): 25 µg/mL (≈ 42.2 µM)
- MIC ([2]; clinical strain 36 (Table S2), read-out: MIC): 50 µg/mL (≈ 84.4 µM)
- MIC ([2]; clinical strain 37 (Table S2), read-out: MIC): 50 µg/mL (≈ 84.4 µM)
- MIC ([2]; clinical strain 38 (Table S2), read-out: MIC): 50 µg/mL (≈ 84.4 µM)
- MIC ([2]; clinical strain 39 (Table S2), read-out: MIC): 50 µg/mL (≈ 84.4 µM)
- MIC ([2]; clinical strain 40 (Table S2), read-out: MIC): 50 µg/mL (≈ 84.4 µM)
- MIC ([2]; clinical strain 41 (Table S2), read-out: MIC): 50 µg/mL (≈ 84.4 µM)
- MIC ([2]; clinical strain 42 (Table S2), read-out: MIC): 6.25 µg/mL (≈ 10.5 µM)
- MIC ([2]; clinical strain 43 (Table S2), read-out: MIC): 6.25 µg/mL (≈ 10.5 µM)
- MIC ([2]; clinical strain 44 (Table S2), read-out: MIC): 50 µg/mL (≈ 84.4 µM)
- MIC ([2]; clinical strain 45 (Table S2), read-out: MIC): 50 µg/mL (≈ 84.4 µM)
- MIC ([2]; clinical strain 46 (Table S2), read-out: MIC): 50 µg/mL (≈ 84.4 µM)
- MIC ([2]; clinical strain 47 (Table S2), read-out: MIC): 50 µg/mL (≈ 84.4 µM)
- MIC ([2]; clinical strain 48 (Table S2), read-out: MIC): 50 µg/mL (≈ 84.4 µM)
- MIC ([2]; clinical strain 49 (Table S2), read-out: MIC): 50 µg/mL (≈ 84.4 µM)
- MIC ([2]; clinical strain 50 (Table S2), read-out: MIC): 50 µg/mL (≈ 84.4 µM)
- MIC ([2]; clinical strain 51 (Table S2), read-out: MIC): 50 µg/mL (≈ 84.4 µM)
- MIC ([2]; clinical strain 52 (Table S2), read-out: MIC): 50 µg/mL (≈ 84.4 µM)
- MIC ([2]; clinical strain 53 (Table S2), read-out: MIC): 50 µg/mL (≈ 84.4 µM)
- MIC ([2]; clinical strain 54 (Table S2), read-out: MIC): 50 µg/mL (≈ 84.4 µM)
- MIC ([2]; clinical strain 55 (Table S2), read-out: MIC): 50 µg/mL (≈ 84.4 µM)
- MIC ([2]; clinical strain 56 (Table S2), read-out: MIC): 50 µg/mL (≈ 84.4 µM)
- MIC ([2]; clinical strain 57 (Table S2), read-out: MIC): 50 µg/mL (≈ 84.4 µM)
- MIC ([2]; clinical strain 58 (Table S2), read-out: MIC): 50 µg/mL (≈ 84.4 µM)
- MIC ([2]; clinical strain 59 (Table S2), read-out: MIC): 50 µg/mL (≈ 84.4 µM)
- MIC ([2]; clinical strain 60 (Table S2), read-out: MIC): 50 µg/mL (≈ 84.4 µM)
- MIC ([2]; clinical strain 61 (Table S2), read-out: MIC): 50 µg/mL (≈ 84.4 µM)
- MIC ([2]; clinical strain 62 (Table S2), read-out: MIC): 50 µg/mL (≈ 84.4 µM)
- MIC ([2]; clinical strain 63 (Table S2), read-out: MIC): 50 µg/mL (≈ 84.4 µM)
- MIC ([2]; clinical strain 64 (Table S2), read-out: MIC): 50 µg/mL (≈ 84.4 µM)
- MIC ([2]; clinical strain 65 (Table S2), read-out: MIC): 3.12 µg/mL (≈ 5.27 µM)
- MIC ([2]; clinical strain 66 (Table S2), read-out: MIC): 3.12 µg/mL (≈ 5.27 µM)
- MIC ([2]; clinical strain 67 (Table S2), read-out: MIC): 50 µg/mL (≈ 84.4 µM)
- MIC ([2]; clinical strain 68 (Table S2), read-out: MIC): 50 µg/mL (≈ 84.4 µM)
- MIC ([2]; clinical strain 69 (Table S2), read-out: MIC): 50 µg/mL (≈ 84.4 µM)
- MIC ([2]; clinical strain 70 (Table S2), read-out: MIC): 50 µg/mL (≈ 84.4 µM)
- MIC ([2]; clinical strain 71 (Table S2), read-out: MIC): 50 µg/mL (≈ 84.4 µM)
- MIC ([2]; clinical strain 72 (Table S2), read-out: MIC): 50 µg/mL (≈ 84.4 µM)
- MIC ([2]; clinical strain 73 (Table S2), read-out: MIC): 50 µg/mL (≈ 84.4 µM)
- MIC ([2]; clinical strain 74 (Table S2), read-out: MIC): 50 µg/mL (≈ 84.4 µM)
- MIC ([2]; clinical strain 75 (Table S2), read-out: MIC): 50 µg/mL (≈ 84.4 µM)
- MIC ([2]; clinical strain 76 (Table S2), read-out: MIC): 50 µg/mL (≈ 84.4 µM)
- MIC ([2]; clinical strain 77 (Table S2), read-out: MIC): 1.6 µg/mL (≈ 2.7 µM)
- MIC ([2]; clinical strain 78 (Table S2), read-out: MIC): 50 µg/mL (≈ 84.4 µM)
- MIC ([2]; clinical strain 79 (Table S2), read-out: MIC): 50 µg/mL (≈ 84.4 µM)
- MIC ([2]; clinical strain 80 (Table S2), read-out: MIC): 50 µg/mL (≈ 84.4 µM)
- MIC ([2]; clinical strain 81 (Table S2), read-out: MIC): 50 µg/mL (≈ 84.4 µM)
- MIC ([2]; mean of MIC values against clinical MDR-SE isolates, read-out: mean MIC): 39.4 µg/mL (≈ 66.5 µM)
- MIC50 ([2]; 81 clinical strains, concentration inhibiting growth of 50% clinical isolates): 50 µg/mL (≈ 84.4 µM)
- MIC90 ([2]; 81 clinical strains, concentration inhibiting growth of 90% of clinical isolates): 50 µg/mL (≈ 84.4 µM)
